Results as given in patent US12403172B2, “Composition for preventing, alleviating or treating metabolic syndrome accompanied by obesity and/or diabetes, containing, as active ingredient, complex (IB complex) of Indian gooseberry extract and sprout barley extract” (HLSCIENCE CO., LTD, priority 2019, dated 2025).
Marks after values point to notes of the source that are not given here.

Tested on: obesity-induced mice from high fat diet
Experiment: Body weight change of obesity-induced mice
Type: in vivo, C57BL/6J mice
Details: 60% high fat diet + Metformin 250 mg/kg b.w.
Method: The effect on the body weight change of obesity-induced mice from high fat diet of the complex of the Indian gooseberry extract and barley sprout extract of the present invention was confirmed. As an experimental animal, 4-week male C57BL/6J mice around 20 g were supplied from Saeron Bio Inc. (Uiwang-si, Korea). They were used for the experiment, after passing through the adaptation period for 1 week under the condition that the light and dark was 12 hours (light/dark cycle) and the temperature was 23±2° C. and the relative humidity was 50±5%. During the adaptation period, AIN-93G diet and drinking water were allowed to be consumed freely, and the body weight was measured to separate 8 mice per each group by the random method. At the end of the adaptation period, the sample intake was progressed as free diet intake for 15 weeks, and the dietary intake and body weight were measured every week, and after the end of the experiment, the weight gain was divided by the dietary intake (total food consumption)) for the same period to calculate the food efficiency ratio (FER). The classification of the experimental group and the composition of the experimental diet were shown in Table 5, and the equation of the diet efficiency was shown in the following equation 3. FER=weight gain (g)/total food consumption (g)×100 Equation 3

How did the “Initial body weight” value turn out when `CN(C)C(=N)N=C(N)N` [Met, Metformin] was run?
The value was 19.26 ± 0.66 g.

And the “Final body weight (g)” value (15 weeks)?
Its value is 39.46 ± 2.16^d g.

What about the “Food intake (g/day/mouse)” value (15 weeks) of the same compound?
The value was 2.66 ± 0.18^b g/day/mouse.

What about the “Weight gain (g)” value (15 weeks) of the same compound?
Its value is 20.20 ± 1.89^c g.

And the “FER (food efficiency ratio)” value (weight gain/total food consumption x100)?
Its value is 7.25 ± 0.68^c.
